The results in this text go back to patent KR20210134284A, “분갈 추출물 또는 이로부터 유래된 화합물을 포함하는 피부 개선용 조성물” (주식회사 엘지생활건강, priority 2018, dated 2020).

In general, inhibition refers to the drop in the measured response relative to a control, in per cent.

The nature of experiment [1]: Anti-glycation activity using L-arginine and glucose. The conditions noted are these: 70℃, 4 h, 420 nm.
The test system of experiment [2] is RAW264.7 cells, NO production (생쥐의 대식세포인 RAW264.7 세포). Put plainly: NO production inhibition by GRIESS method in LPS-stimulated RAW264.7 cells (anti-inflammatory). The conditions noted are these: Mus musculus, LPS 1 μg, 24 h, read-out: NO production inhibition rate. Type of experiment: cell-based. (In general: The Griess reaction detects nitrite, a stable product of nitric oxide.)

Experiment [3] is described as follows: DPPH free radical scavenging (antioxidant). The note with it: 37℃, 30 min, 520 nm, concentration removing 50% of free radicals. (In general: Loss of DPPH colour is used to gauge radical scavenging.)
Experiment [4] has as its system type Ⅰ collagen synthesis in human-derived fibroblasts (제1형 콜라겐; 인간 유래 섬유 아세포). Put plainly: Type I collagen synthesis promotion in human fibroblasts (PICP EIA kit). In kind it is cell-based. The conditions noted are these: 48 h; for type I collagen production amount: negative control 150.2 ng/ml.
In experiment [5] the test system is B-16 mouse melanoma cell (쥐의 멜라노마 세포). Put plainly: Melanin production inhibition (whitening), absorbance at 400 nm. In kind it is cell-based. The conditions noted are these: 72 h, 3 days, relative to control, read-out: total melanin inhibition rate.
Setting [6] is: Homo sapiens, Fibroblast, 10 ppm, relative to control, read-out: collagen production increase rate.

In experiment [1] (55 ppm), `N=C(N)NN` [Aminoguanidine, reference compound] had a glycation inhibition rate of 48.12%.
For `CNC(=N)NCCC[C@H](N)C(=O)O` [L-NMMA, L-NG-monomethylarginine, reference compound], the inhibition at 10 ppm in experiment [2] was found to be 30.6%.
In experiment [3], `O=C1O[C@H]([C@@H](O)CO)C(O)=C1O` [비타민C, reference compound] registered an IC50 of 0.0005 %w/v. Moreover, in experiment [4] (50 ppm), the “type I collagen production amount” value is 210.9 ng/mL. Also, in experiment [4] (Homo sapiens, Fibroblast, 50 ppm, relative to control, read-out: collagen production increase rate), the activation at 50 ppm was found to be 40.4%.
Take `OC[C@H]1O[C@@H](Oc2ccc(O)cc2)[C@H](O)[C@@H](O)[C@@H]1O` [알부틴, arbutin, reference compound]: in experiment [5] (100 ppm), the inhibition at 100 ppm came out at 47.8%.
As for `COc1c(O[C@@H]2O[C@H](CO[C@@H]3OC[C@@H](O)[C@H](O)[C@H]3O)[C@@H](O)[C@H](O)[C@H]2O)cc2occ(-c3ccc(O)cc3)c(=O)c2c1O` [화합물 1, tectorigenin 7-O-xylosylglucoside], in experiment [2], the inhibition at 100 ppm worked out at 99.5%. Further, the glycation inhibition rate in experiment [1] (10 ppm) came to 41.67%. Besides, in experiment [5], the inhibition at 10 ppm was 48.3%. The same molecule had an IC50 in experiment [3] of 0.0015 %w/v. Moreover, in experiment [4] (10 ppm), the “type I collagen production amount” value stood at 202.3 ng/mL. Moreover, the activation at 10 ppm in experiment [4] (setting [6]) is 34.7%.
For `COc1c(O[C@@H]2O[C@H](CO)[C@@H](O)[C@H](O)[C@H]2O)cc2occ(-c3ccc(O)cc3)c(=O)c2c1O` [화합물 2, tectoridin], the inhibition at 100 ppm in experiment [2] was determined as 99.5%. The molecule further showed a glycation inhibition rate in experiment [1] (10 ppm) of 38.95%. Moreover, the inhibition at 10 ppm in experiment [5] turned out to be 63.1%. The same molecule had an IC50 in experiment [3] of 0.0024 %w/v. In addition, the “type I collagen production amount” value in experiment [4] (10 ppm) was 221.9 ng/mL. Also, the activation at 10 ppm in experiment [4] (setting [6]) was determined as 47.7%.
Consider `COc1c(O)cc2occ(-c3ccc(O)cc3)c(=O)c2c1O` [화합물 3, tectorigenin], for which the inhibition at 10 ppm in experiment [2] was determined as 51.9%; in experiment [5], 32.7%. The glycation inhibition rate in experiment [1] (10 ppm) turned out to be 34.75%. The same molecule registered an IC50 in experiment [3] of 0.0012 %w/v. In addition, in experiment [4] (10 ppm), the “type I collagen production amount” value was found to be 208.1 ng/mL. Further, the activation at 10 ppm in experiment [4] (setting [6]) was determined as 38.5%.
